{
  "source": "patent US10463747B2",
  "about": "“Method of developing a vaccine using peptide-poly IC complexes” (H. Lee Moffitt Cancer Center and Research Institute, Inc., priority 2011, dated 2019)",
  "key": {"[1]": {"system": "CD8 T cell responses of peptide epitope Trp1455/9M (TAPDNLGYM)", "test": "Tetramer analysis of CD8 T cell responses after i.v. prime-boost vaccination with modified Trp1 peptide mixed with Poly-IC", "type": "in vivo, mice", "details": "for immunogenicity of peptide epitope (CD8 T cell response, tetramer analysis): i.v. prime-boost 2 weeks apart, blood 7 days after boost; for immunogenicity of peptide epitope compared with hepta-arginine (R)7 tail: three-arginine tail, FIG. 2", "protocol": "CD8 T cell responses of peptide epitope Trp1455/9M (TAPDNLGYM) (SEQ ID NO:2) containing 3 types of tails with charged amino acids (R, K or E) and a short linker (MFV) (SEQ ID NO:3) were measured by tetramer analysis after i.v. prime-boost (2 weeks apart) vaccination using 120 μg peptide mixed with 50 μg Poly-IC. These sequences correspond to (R)7-MFV-TAPDNLGYM (SEQ ID NO:4); (K)7-MFV-TAPDNLGYM (SEQ ID NO:5); and (E)7-MFV-TAPDNLGYM (SEQ ID NO:6) respectively. Immune responses in 3 individual mice measured 7 days after the boost in blood samples. Numbers below the rectangular gates correspond to the % tetramer positive (antigen-specific) cells of the total CD8 T cell population.\nThe sequence for the three-arginine tail is (R)3-MFVTAPDNLGYM (SEQ ID NO:7).\nCD8 T cell responses of peptide epitope Trp1455/9M (TAPDNLGYM) (SEQ ID NO:2) containing 2 types of hydrophobic tails (LMFVMFV-TAPDNLGYM (SEQ ID NO:10) and (Pam)2KMFV-TAPDNLGYM (SEQ ID NO:11)) at the amino terminus end were measured by tetramer analysis after i.v. prime-boost (2 weeks apart) vaccination using peptide mixed with 50 μg Poly-IC. Immune responses in 3 individual mice measured 7 days after the boost in blood samples. Numbers below the rectangular gates correspond to the % tetramer positive (antigen-specific) cells of the total CD8 T cell population.\n(§1) Comparison of CD8 T cell responses of peptide epitope (pam)2Trp455/9M [(Pam)2KMFV-TAPDNLGYM] (SEQ ID NO:11) injected together with 50 μg Poly-IC (top panels) or 3.5 hours after the Poly-IC (bottom panels). Immune response in 3 individual mice measured 7 days after an identical boost (12 days apart) in blood samples. Numbers below the rectangular gates correspond to the % tetramer positive (antigen-specific) cells of the total CD8 T cell population."}, "[2]": {"system": "CD8 T cell responses of peptide epitope HPV16-E749 (RAHYNIVTF)", "test": "Tetramer analysis of CD8 T cell responses after i.v. prime-boost vaccination with HPV16-E7 peptide mixed with Poly-IC", "type": "in vivo, mice", "details": "for immunogenicity of peptide epitope (CD8 T cell response, tetramer analysis): i.v. prime-boost 2 weeks apart, 30 μg peptide mixed with 50 μg Poly-IC, blood 7 days after boost", "protocol": "CD8 T cell responses of peptide epitope HPV16-E749 (RAHYNIVTF) (SEQ ID NO:8) and HPV16-E749/1A (AAHYNIVTF) (SEQ ID NO:9) measured by tetramer analysis after i.v. prime-boost (2 weeks apart) vaccination using 30 μg peptide mixed with 50 μg Poly-IC. Immune responses in 3 individual mice measured 7 days after the boost in blood samples. Numbers below the oval gates correspond to the % tetramer positive (antigen-specific) cells of the total CD8 T cell population.\nas §1, with “epitope HPV16-E749 (RAHYNIVTF)” for “epitope (pam)2Trp455/9M [(Pam)2KMFV-TAPDNLGYM]”, “ID NO:8)” for “ID NO:11)”, “or 5” for “or 3.5”, “Immune responses” for “Immune response”, “the oval” for “the rectangular”"}, "MHC molecule": {"molecular_target": "T1, MHC molecule (Mus musculus, UniProt P01899)", "T1 sequence (P01899 25-362)": "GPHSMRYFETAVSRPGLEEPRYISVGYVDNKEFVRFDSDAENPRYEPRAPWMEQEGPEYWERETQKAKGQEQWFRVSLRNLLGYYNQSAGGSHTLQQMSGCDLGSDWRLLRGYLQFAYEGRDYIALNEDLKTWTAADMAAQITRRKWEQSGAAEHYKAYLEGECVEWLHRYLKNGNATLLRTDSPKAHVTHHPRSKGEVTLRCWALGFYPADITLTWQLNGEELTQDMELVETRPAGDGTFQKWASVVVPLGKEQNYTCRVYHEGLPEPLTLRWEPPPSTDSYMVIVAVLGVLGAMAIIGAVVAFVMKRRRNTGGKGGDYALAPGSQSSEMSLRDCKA", "T1 sequence (P01887 21-119 partner)": "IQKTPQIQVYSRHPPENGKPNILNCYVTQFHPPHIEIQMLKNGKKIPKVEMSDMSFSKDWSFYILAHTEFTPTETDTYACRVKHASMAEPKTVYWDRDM", "details": "arginine to alanine substitution at position 1; cited from earlier work"}, "[3]": {"system": "antigen-specific CD8 T lymphocytes", "test": "Immunogenicity of modified peptides with immune adjuvants (general observations, adjuvant type and timing)", "details": "in vivo", "protocol": "Arginine-containing peptides and the hydrophobic peptides are highly immunogenic when administered together with Poly-IC because they are able to form complexes. This is supported by the observations that if the Poly-IC is injected intravenously (i.v) 3.5 to 5 hr before the peptide (also i.v.), then the immune responses are dramatically lower as compared to circumstances when both peptide and Poly-IC are administered together (FIGS. 7 and 8).\nThe inventors are developing assays that measure the formation of these complexes. The data has been observed with Poly-IC, which is both a TLR3 agonist and ligand for RIG-1 like receptors, or cytoplasmic helicases.\nThere are examples of antigens (proteins or peptides) that are conjugated to antibodies specific for cell surface molecules expressed on antigen-presenting cells in order to specifically target the antigens to these cells to generate immune responses. […] This is likely due to the antibodies, while targeting the antigen to the appropriate antigen-presenting cell, are not sufficiently stimulatory to activate the cell to become optimal to stimulate the T cell responses. In addition, the ODN-CpG-peptide complexes are not captured as efficiently due to their relatively small size, as compared to the peptide-poly-IC complexes, by the scavenger receptors on the antigen-presenting cells. […]"}, "[4]": {"details": "50 μg Poly-IC, 7 days after identical boost (12 days apart), blood"}, "[5]": {"details": "hydrophobic tail at amino terminus, peptide mixed with 50 μg Poly-IC"}},
  "note": "Where no end group is shown, it is not given here.",
  "data": [
    {"substance": "(Pam)2KMFV-TAPDNLGYM (KMFVTAPDNLGYM; not fully specified (residue 1); printed as (Pam)2KMFV-TAPDNLGYM)", "values": [
      {"measurement": "immune response, peptide injected together with Poly-IC versus 3.5 hours after the Poly-IC", "setting": "[1]; [4]", "value": "stronger immune responses"},
      {"measurement": "immunogenicity of peptide epitope (CD8 T cell response, tetramer analysis)", "setting": "[1]; [5]", "value": "increase the immunogenicity"}
    ]},
    {"substance": "(R)3-MFVTAPDNLGYM (RRRMFVTAPDNLGYM; 3 arginine tail epitope Trp1 455/9m)", "values": [
      {"measurement": "immunogenicity of peptide epitope compared with hepta-arginine (R)7 tail", "setting": "[1]", "value": "increases immunogenicity of a peptide epitope similar to the results obtained from a hepta-arginine (R)7 tail"},
      {"measurement": "immunogenicity of peptide epitope compared with hepta-arginine (R)7 tail", "setting": "[1]; listed as (R)3", "value": "function as well as peptides with seven arginines (R)7"}
    ]},
    {"substance": "(R)7-MFV-TAPDNLGYM (RRRRRRRMFVTAPDNLGYM; 7 arginine tail epitope Trp1 455/9m)", "values": [
      {"measurement": "immunogenicity of peptide epitope (CD8 T cell response, tetramer analysis)", "setting": "[1]; charged amino acid tail + MFV linker, 120 μg peptide mixed with 50 μg Poly-IC", "value": "increases the immunogenicity"},
      {"measurement": "immunogenicity of peptide epitope (CD8 T cell response, tetramer analysis)", "setting": "[1]; charged amino acid tail + MFV linker, 120 μg peptide mixed with 50 μg Poly-IC, listed as R7", "value": "function as good immunogens"}
    ]},
    {"substance": "AAHYNIVTF (peptide epitope hpv16-e7 49/1a) [HPV16-E749/1A]", "values": [
      {"measurement": "immunogenicity of peptide epitope (CD8 T cell response, tetramer analysis)", "setting": "[2]", "value": "reduces its immunogenicity"},
      {"measurement": "immunogenicity of peptide epitope (CD8 T cell response, tetramer analysis)", "setting": "[2]; listed as AAHYNIVTF", "value": "reduced dramatically the immunogenicity"},
      {"measurement": "capacity of the peptide to bind to the MHC molecule and be recognized by T cells", "setting": "MHC molecule", "value": "does not interfere with the capacity of the peptide to bind to the MHC molecule and be recognized by T cells"}
    ]},
    {"substance": "LMFVMFV-TAPDNLGYM (LMFVMFVTAPDNLGYM; peptide epitope Trp1 455/9m with hydrophobic tail)", "values": [
      {"measurement": "immunogenicity of peptide epitope (CD8 T cell response, tetramer analysis)", "setting": "[1]; [5]", "value": "increase the immunogenicity"}
    ]},
    {"substance": "RAHYNIVTF (peptide epitope hpv16-e7 49) [HPV16-E749]", "values": [
      {"measurement": "immune response, peptide injected together with Poly-IC versus 5 hours after the Poly-IC", "setting": "[2]; [4]", "value": "stronger immune responses"},
      {"measurement": "immunogenicity of peptide epitope (CD8 T cell response, tetramer analysis)", "setting": "[2]", "value": "more immunogenic than AAHYNIVTF"}
    ]},
    {"substance": "polyinosinic:polycytidylic acid [poly-IC]", "values": [
      {"measurement": "effect on immune responses of injection prior to the injection of peptide-poly-IC complexes", "setting": "[3]", "value": "inhibition of the immune responses"},
      {"measurement": "generation of secondary (booster) immune responses by adjuvant", "setting": "[3]", "value": "very potent"}
    ]}
  ]
}
